Counter-ions that a name gives are not always drawn.
Legend:
c-MET = c-MET (Homo sapiens, UniProt P08581); experiment: MET luminescence-based enzyme assay (Kinase-Glo); type: biochemical
Protocol: The subscript designates positive or negative controls. The Z′ score for a robust screening assay should be ≧0.50. The typical threshold=μ+−3*σ+. Any value that falls below the threshold was designated a “hit”.
MET Luminescence-Based Enzyme Assay
MET kinase (see below), Kinase-Glo™ (Promega Cat#V6712).
Negative controls contained 10 μM staurosporine.

GTL16 cells = experiment: 96-well XTT cell survival assay (GTL16 cells); type: cell-based; conditions: Homo sapiens, GTL 16, 72 hours
Protocol: GTL16 cells were maintained in DMEM Medium supplemented with 10% fetal bovine serum (FBS) 2 mM L-Glutamine and 100 units penicillin/100 μg streptomycin, at 37° C. in 5% CO2.
Compounds were tested in the following assays in duplicate.
96-well XTT assay (GTL16 cells): One day prior to assay the growth media was aspirated off and assay media was added to cells. On the day of the assay, the cells were grown in assay media containing various concentrations of compounds (duplicates) on a 96-well flat bottom plate for 72 hours at 37° C. in 5% CO2. The starting cell number was 5000 cells per well and volume was 120 μl. At the end of the 72-hour incubation, 40 μl of XTT labeling mixture (50:1 solution of sodium 3′-[1-(phenylaminocarbonyl)-3,4-tetrazolium]-bis (4-methoxy-6-nitro) benzene sulfonic acid hydrate and Electron-coupling reagent: PMS (N-methyl dibenzopyrazine methyl sulfate) were added to each well of the plate. After an additional 5 hours of incubation at 37° C., the absorbance reading at 450 nm with a background correction of 650 nm was measured with a spectrophotometer.

Chain of c-MET (P08581 1078-1345 limits assumed): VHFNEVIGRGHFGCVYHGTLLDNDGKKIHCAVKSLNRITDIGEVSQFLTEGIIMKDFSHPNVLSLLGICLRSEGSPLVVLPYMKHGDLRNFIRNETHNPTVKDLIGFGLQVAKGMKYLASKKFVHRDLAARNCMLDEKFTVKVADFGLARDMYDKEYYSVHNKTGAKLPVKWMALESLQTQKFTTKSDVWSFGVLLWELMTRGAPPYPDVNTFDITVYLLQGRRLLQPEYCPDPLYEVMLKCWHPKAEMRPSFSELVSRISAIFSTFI

Row | Compound | IC50 (c-MET) [nM] | IC50 (GTL16 cells) [nM]
1 | Cn1cc(-c2ccc3nnc(Sc4ccc5ncsc5c4)n3n2)cn1 [Compound 14, 3-(Benzothiazol-6-ylsulfanyl)-6-(1-methyl-1H-pyrazol-4-yl)-[1,2,4]triazolo[4,3-b]pyridazine] | < 100 | ≤ 100
2 | Cc1ccc2nnc(Sc3c[nH]c4ncc(-c5cnn(C)c5)cc34)n2n1 [Compound 53, 6-Methyl-3-[5-(1-methyl-1H-pyrazol-4-yl)-1H-pyrrolo[2,3-b]pyridin-3-ylsulfanyl]-[1,2,4]triazolo[4,3-b]pyridazine] | < 100 | 100 to 1000
3 | Cc1ccc2nnc(Sc3ccc4ncc(-c5cnn(C6CN(C(=O)OC(C)(C)C)C6)c5)cc4c3)n2n1 [Compound 64, 3-{4-[6-(6-Methyl-[1,2,4]triazolo[4,3-b]pyridazin-3-ylsulfanyl)-quinolin-3-yl]-pyrazol-1-yl}-azetidine-1-carboxylic acid tert-butyl ester] | < 100 | ≤ 100
4 | COCCn1cnc2ccc(Sc3nnc4ccc(-c5cnn(C)c5)nn34)cc21 [Compound 31, 3-[3-(2-Methoxy-ethyl)-3H-benzoimidazol-5-ylsulfanyl]-6-(1-methyl-1H-pyrazol-4-yl)-[1,2,4]triazolo[4,3-b]pyridazine] | < 100 | 100 to 1000
5 | Cc1cc2cc(Sc3nnc4ccc(-c5cnn(C)c5)nn34)ccc2nc1N [Compound 24, 3-Methyl-6-[6-(1-methyl-1H-pyrazol-4-yl)-[1,2,4]triazolo[4,3-b]pyridazin-3-ylsulfanyl]-quinolin-2-ylamine] | 100 to 1000 | 
6 | Cn1cc(-c2ccc3nnc(Sc4cc5cccnc5cc4F)n3n2)cn1 [Compound 10, 7-Fluoro-6-[6-(1-methyl-1H-pyrazol-4-yl)-[1,2,4]triazolo[4,3-b]pyridazin-3-ylsulfanyl]-quinoline] | < 100 | ≤ 100
7 | Cn1cc(-c2ccc3nnc(Sc4ccc5ncc(NC(=O)OC(C)(C)C)cc5c4)n3n2)cn1 [Compound 35, {6-[6-(1-Methyl-1H-pyrazol-4-yl)-[1,2,4]triazolo[4,3-b]pyridazin-3-ylsulfanyl]-quinolin-3-yl}-carbamic acid tert-butyl ester] | < 100 | ≤ 100
8 | COc1ccnc2ccc(Sc3nnc4ccc(-c5cnn(C)c5)nn34)cc12 [Compound 26, 4-Methoxy-6-[6-(1-methyl-1H-pyrazol-4-yl)-[1,2,4]triazolo[4,3-b]pyridazin-3-ylsulfanyl]-quinoline] | < 100 | ≤ 100
9 | CCn1cnc2ccc(Sc3nnc4ccc(-c5cnn(C)c5)nn34)cc21 [Compound 30, 3-(3-Ethyl-3H-benzoimidazol-5-ylsulfanyl)-6-(1-methyl-1H-pyrazol-4-yl)-[1,2,4]triazolo[4,3-b]pyridazine] | < 100 | ≤ 100
10 | CNc1ccc2nnc(Sc3ccc4ncccc4c3-c3cnn(C)c3)n2n1 [Compound 49, Methyl-{3-[5-(1-methyl-1H-pyrazol-4-yl)-quinolin-6-ylsulfanyl]-[1,2,4]triazolo[4,3-b]pyridazin-6-yl}-amine] | > 10000 | 
11 | CN(C)c1ccnc2ccc(Sc3nnc4ccc(-c5cnn(C)c5)nn34)cc12 [Compound 29, Dimethyl-{6-[6-(1-methyl-1H-pyrazol-4-yl)-[1,2,4]triazolo[4,3-b]pyridazin-3-ylsulfanyl]-quinolin-4-yl}-amine] | 100 to 1000 | 
12 | CNc1ccc2nnc(Sc3ccc4nccc(Sc5nnc6ccc(NC)nn56)c4c3)n2n1 [Compound 48, 4,6-{6-Methylamino-[1,2,4]triazolo[4,3-b]pyridazin-3-ylsulfanyl}-quinoline] | > 10000 | 
13 | Cc1ccc2nnc(Sc3cc4cccnc4cc3F)n2n1 [Compound 51, 7-Fluoro-6-(6-methyl-[1,2,4]triazolo[4,3-b]pyridazin-3-ylsulfanyl)-quinoline] | 100 to 1000 | 
14 | Cn1cc(-c2ccc3nnc(Sc4ccc5c(ccc[n+]5[O-])c4)n3n2)cn1 [Compound 27, 6-[6-(1-Methyl-1H-pyrazol-4-yl)-[1,2,4]triazolo[4,3-b]pyridazin-3-ylsulfanyl]-quinoline, N-oxide] | 1000 to 10000 | 
15 | Cc1cnc2ccc(Sc3nnc4ccc(C)nn34)cc2c1 [Compound 54, 3-Methyl-6-(6-methyl-[1,2,4]triazolo[4,3-b]pyridazin-3-ylsulfanyl)-quinoline] | 100 to 1000 | 

Further lines, with some results ahead:

Row | IC50 (c-MET) [nM] | Compound | IC50 (GTL16 cells) [nM]
16 | 100 to 1000 | Cn1cc(-c2ccc3nnc(Sc4ccc5ncccc5c4[N+](=O)[O-])n3n2)cn1 [Compound 13, 6-[6-(1-Methyl-1H-pyrazol-4-yl)-[1,2,4]triazolo[4,3-b]pyridazin-3-ylsulfanyl]-5-nitro-quinoline] | 100 to 1000
17 | 100 to 1000 | CN(C)CCn1cnc2ccc(Sc3nnc4ccc(-c5cnn(C)c5)nn34)cc21 [Compound 32, Dimethyl-(2-{6-[6-(1-methyl-1H-pyrazol-4-yl)-[1,2,4]triazolo[4,3-b]pyridazin-3-ylsulfanyl]-benzoimidazol-1-yl}-ethyl)-amine, formic acid salt] | 1000 to 10000
18 | < 100 | CNC(=O)c1ccc(-c2ccc3nnc(Sc4cc5cccnc5cc4C)n3n2)cc1F [Compound 18, 2-Fluoro-N-methyl-4-[3-(7-methyl-quinolin-6-ylsulfanyl)-[1,2,4]triazolo[4,3-b]pyridazin-6-yl]-benzamide] | ≤ 100
19 | 1000 to 10000 | Cn1cc(-c2ccc3nnc(Sc4ccc5nccc(NC(=O)OC(C)(C)C)c5c4)n3n2)cn1 [Compound 36, {6-[6-(1-Methyl-1H-pyrazol-4-yl)-[1,2,4]triazolo[4,3-b]pyridazin-3-ylsulfanyl]-quinolin-4-yl}-carbamic acid tert-butyl ester] | 
20 | 100 to 1000 | Cc1ccc2nnc(Sc3ccc4ncccc4c3)n2n1 [Compound 37, 6-(6-Methyl-[1,2,4]triazolo[4,3-b]pyridazin-3-ylsulfanyl)-quinoline] | 
21 | < 100 | CCN1CC(n2cc(-c3cnc4ccc(Sc5nnc6ccc(C)nn56)cc4c3)cn2)C1 [Compound 61, 3-[1-(1-Ethyl-azetidin-3-yl)-1H-pyrazol-4-yl]-6-(6-methyl-[1,2,4]triazolo[4,3-b]pyridazin-3-ylsulfanyl)-quinoline] | ≤ 100
22 | < 100 | Cc1ccc2nnc(Sc3ccc4ncc(-c5cnn(C6CN(C(C)C)C6)c5)cc4c3)n2n1 [Compound 69, 3-[1-(1-Isopropyl-azetidin-3-yl)-1H-pyrazol-4-yl]-6-(6-methyl-[1,2,4]triazolo[4,3-b]pyridazin-3-ylsulfanyl)-quinoline] | ≤ 100
23 | < 100 | Cc1ccc2nnc(Sc3ccc4ncc(-c5cn[nH]c5)cc4c3)n2n1 [Compound 59, 6-(6-Methyl-[1,2,4]triazolo[4,3-b]pyridazin-3-ylsulfanyl)-3-(1H-pyrazol-4-yl)-quinoline] | 100 to 1000
24 | < 100 | Cc1ccc2nnc(Sc3ccc4ncc(-c5cnn(C(C)(C)C(=O)O)c5)cc4c3)n2n1 [Compound 45, 2-Methyl-2-{4-[6-(6-methyl-[1,2,4]triazolo[4,3-b]pyridazin-3-ylsulfanyl)-quinolin-3-yl]-pyrazol-1-yl}-propionic acid] | 1000 to 10000
25 | < 100 | Cn1cc(-c2ccc3nnc(Sc4ccc5ncc(N)cc5c4)n3n2)cn1 [Compound 33, 6-[6-(1-Methyl-1H-pyrazol-4-yl)-[1,2,4]triazolo[4,3-b]pyridazin-3-ylsulfanyl]-quinolin-3-ylamine, trifluoroacetic acid salt] | ≤ 100
26 | 100 to 1000 | Cc1ccc2nnc(Sc3ccc4ncc(Br)cc4c3)n2n1 [Compound 43, 3-Bromo-6-(6-methyl-[1,2,4]triazolo[4,3-b]pyridazin-3-ylsulfanyl)-quinoline] | 
27 | > 10000 | Cc1ccc2nnc(Sc3ccc4nccc(Sc5nncn5C)c4c3)n2n1 [Compound 57, 6-(6-Methyl-[1,2,4]triazolo[4,3-b]pyridazin-3-ylsulfanyl)-4-(4-methyl-4H-[1,2,4]triazol-3-ylsulfanyl)-quinoline] | 
28 | 100 to 1000 | Cn1cc(-c2ccc3nnc(Sc4ccc5nccc(N)c5c4)n3n2)cn1 [Compound 34, 6-[6-(1-Methyl-1H-pyrazol-4-yl)-[1,2,4]triazolo[4,3-b]pyridazin-3-ylsulfanyl]-quinolin-4-ylamine, trifluoroacetic acid salt] | 
29 | < 100 | CNC(=O)c1ccc(-c2ccc3nnc(Sc4cc5cccnc5cc4F)n3n2)cc1F [Compound 17, 2-Fluoro-4-[3-(7-fluoro-quinolin-6-ylsulfanyl)-[1,2,4]triazolo[4,3-b]pyridazin-6-yl]-N-methyl-benzamide] | ≤ 100
30 | 1000 to 10000 | Methyl-{3-[4-(4-methyl-4H-[1,2,4]triazol-3-ylsulfanyl)-quinolin-6-ylsulfanyl]-[1,2,4]triazolo[4,3-b]pyridazin-6-yl}-amine (A), Methyl-{3-[6-(4-methyl-4H-[1,2,4]triazol-3-ylsulfanyl)-quinolin-4-ylsulfanyl]-[1,2,4]triazolo[4,3-b]pyridazin-6-yl}-amine (B) [Compound 47] | 
31 | 1000 to 10000 | CNc1ccnc2ccc(Sc3nnc4ccc(-c5cnn(C)c5)nn34)cc12 [Compound 28, Methyl-{6-[6-(1-methyl-1H-pyrazol-4-yl)-[1,2,4]triazolo[4,3-b]pyridazin-3-ylsulfanyl]-quinolin-4-yl}-amine] | 
